Legend:
[1] = target: T1, Angiotensin-converting enzyme (Rattus norvegicus, UniProt P47820); assay: In vitro inhibition of Angiotensin I converting enzyme.
T1 sequence (P47820 whole entry): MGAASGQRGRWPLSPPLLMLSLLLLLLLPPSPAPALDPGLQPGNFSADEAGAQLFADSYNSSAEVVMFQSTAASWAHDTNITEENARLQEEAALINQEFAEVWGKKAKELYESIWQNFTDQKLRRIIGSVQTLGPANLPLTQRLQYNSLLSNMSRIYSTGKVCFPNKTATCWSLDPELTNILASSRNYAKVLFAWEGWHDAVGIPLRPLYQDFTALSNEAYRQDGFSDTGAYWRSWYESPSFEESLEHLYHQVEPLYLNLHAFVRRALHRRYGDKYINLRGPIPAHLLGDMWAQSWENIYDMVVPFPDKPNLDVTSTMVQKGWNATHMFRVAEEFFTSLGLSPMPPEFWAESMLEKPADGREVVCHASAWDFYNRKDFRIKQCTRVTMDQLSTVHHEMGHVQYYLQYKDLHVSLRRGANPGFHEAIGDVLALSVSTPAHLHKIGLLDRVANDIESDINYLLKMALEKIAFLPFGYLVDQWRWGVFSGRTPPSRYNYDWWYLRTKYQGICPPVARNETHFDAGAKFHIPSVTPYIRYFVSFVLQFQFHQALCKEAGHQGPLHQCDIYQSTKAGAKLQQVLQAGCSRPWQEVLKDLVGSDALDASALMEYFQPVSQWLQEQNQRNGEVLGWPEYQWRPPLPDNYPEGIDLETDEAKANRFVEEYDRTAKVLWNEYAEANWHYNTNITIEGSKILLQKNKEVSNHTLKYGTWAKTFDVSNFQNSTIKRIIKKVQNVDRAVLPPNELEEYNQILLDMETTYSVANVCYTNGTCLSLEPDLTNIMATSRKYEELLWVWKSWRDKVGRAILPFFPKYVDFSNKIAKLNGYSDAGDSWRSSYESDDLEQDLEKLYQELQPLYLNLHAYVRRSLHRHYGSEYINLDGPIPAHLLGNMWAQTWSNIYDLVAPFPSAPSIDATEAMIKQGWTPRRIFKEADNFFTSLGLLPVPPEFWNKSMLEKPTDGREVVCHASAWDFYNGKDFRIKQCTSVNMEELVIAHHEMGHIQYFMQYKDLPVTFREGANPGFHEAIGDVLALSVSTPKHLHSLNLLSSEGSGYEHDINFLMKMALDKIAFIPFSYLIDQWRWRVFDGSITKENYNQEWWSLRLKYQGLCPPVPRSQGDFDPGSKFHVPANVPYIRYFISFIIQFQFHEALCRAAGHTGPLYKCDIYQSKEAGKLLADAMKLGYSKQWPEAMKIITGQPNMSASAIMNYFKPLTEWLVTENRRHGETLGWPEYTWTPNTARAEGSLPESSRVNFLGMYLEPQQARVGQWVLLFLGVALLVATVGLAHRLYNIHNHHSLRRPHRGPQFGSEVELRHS

Neprilysin = target: T2, Neprilysin (Oryctolagus cuniculus, UniProt P08049); assay: In vitro inhibition of Neutral endopeptidase.
T2 sequence (P08049 whole entry): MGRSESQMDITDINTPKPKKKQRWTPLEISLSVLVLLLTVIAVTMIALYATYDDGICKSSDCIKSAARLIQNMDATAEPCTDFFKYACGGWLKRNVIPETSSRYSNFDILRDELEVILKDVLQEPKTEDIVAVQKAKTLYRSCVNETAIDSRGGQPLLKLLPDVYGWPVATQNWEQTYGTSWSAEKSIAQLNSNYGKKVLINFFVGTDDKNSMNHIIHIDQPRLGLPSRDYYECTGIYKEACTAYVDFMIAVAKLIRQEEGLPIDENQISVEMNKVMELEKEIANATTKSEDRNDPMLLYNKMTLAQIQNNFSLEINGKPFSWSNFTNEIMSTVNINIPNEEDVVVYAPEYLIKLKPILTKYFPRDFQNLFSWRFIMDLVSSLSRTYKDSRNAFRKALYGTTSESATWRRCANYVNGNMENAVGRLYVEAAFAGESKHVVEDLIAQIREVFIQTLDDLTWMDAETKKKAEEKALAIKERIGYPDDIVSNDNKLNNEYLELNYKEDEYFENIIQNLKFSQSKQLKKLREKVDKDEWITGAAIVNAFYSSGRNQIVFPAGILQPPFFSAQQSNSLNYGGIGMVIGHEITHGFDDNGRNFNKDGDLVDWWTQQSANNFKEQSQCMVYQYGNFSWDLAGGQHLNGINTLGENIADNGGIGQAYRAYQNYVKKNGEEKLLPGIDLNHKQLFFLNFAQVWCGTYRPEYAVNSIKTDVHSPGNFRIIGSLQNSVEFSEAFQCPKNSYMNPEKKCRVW

[2] = target: T3, Endothelin-converting enzyme 1 (Homo sapiens, UniProt P42892); assay: In vitro inhibition of endothelin converting enzyme.
T3 sequence (P42892 whole entry): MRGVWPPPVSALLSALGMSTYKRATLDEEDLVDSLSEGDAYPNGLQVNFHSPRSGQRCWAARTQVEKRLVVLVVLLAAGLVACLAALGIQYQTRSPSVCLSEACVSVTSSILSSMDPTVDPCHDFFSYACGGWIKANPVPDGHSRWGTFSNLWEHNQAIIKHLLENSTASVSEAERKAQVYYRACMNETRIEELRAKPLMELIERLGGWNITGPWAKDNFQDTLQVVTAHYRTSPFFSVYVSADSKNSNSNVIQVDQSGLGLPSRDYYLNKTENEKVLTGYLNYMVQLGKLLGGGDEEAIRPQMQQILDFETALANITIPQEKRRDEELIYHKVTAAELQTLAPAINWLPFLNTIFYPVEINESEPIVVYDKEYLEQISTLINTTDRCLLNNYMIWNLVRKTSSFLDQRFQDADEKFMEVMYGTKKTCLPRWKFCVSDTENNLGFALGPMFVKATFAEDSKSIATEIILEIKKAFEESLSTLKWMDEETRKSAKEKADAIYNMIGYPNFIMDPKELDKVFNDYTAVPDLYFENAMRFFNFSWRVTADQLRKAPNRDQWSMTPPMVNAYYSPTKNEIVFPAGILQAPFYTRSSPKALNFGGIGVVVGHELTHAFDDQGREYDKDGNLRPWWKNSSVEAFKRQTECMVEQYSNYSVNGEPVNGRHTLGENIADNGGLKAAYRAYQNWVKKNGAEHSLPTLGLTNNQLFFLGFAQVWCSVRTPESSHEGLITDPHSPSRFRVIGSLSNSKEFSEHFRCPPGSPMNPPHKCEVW

Rattus norvegicus [3] = assay: Decrease of mean arterial pressure (MAP) on iv administration of sodium salt at 30 mg/kg at 5 or 15 min prior to the big ET-1 challenge in wistar rats; type: functional, Artery
Rattus norvegicus [4] = assay: Increase in MAP on intravenous injection of AI in vehicle at 1 nmol/kg iv in male wistar rats; type: functional
[5] = target: T4, Neprilysin (Mus musculus) (UniProt Q61391); assay: In vivo inhibition of lung Neutral endopeptidase in mice was determined by blockage of enzyme at 25 mg/kg iv of compound; type: organism-based; parameters: dose 25 mg/kg
T4 sequence (whole entry): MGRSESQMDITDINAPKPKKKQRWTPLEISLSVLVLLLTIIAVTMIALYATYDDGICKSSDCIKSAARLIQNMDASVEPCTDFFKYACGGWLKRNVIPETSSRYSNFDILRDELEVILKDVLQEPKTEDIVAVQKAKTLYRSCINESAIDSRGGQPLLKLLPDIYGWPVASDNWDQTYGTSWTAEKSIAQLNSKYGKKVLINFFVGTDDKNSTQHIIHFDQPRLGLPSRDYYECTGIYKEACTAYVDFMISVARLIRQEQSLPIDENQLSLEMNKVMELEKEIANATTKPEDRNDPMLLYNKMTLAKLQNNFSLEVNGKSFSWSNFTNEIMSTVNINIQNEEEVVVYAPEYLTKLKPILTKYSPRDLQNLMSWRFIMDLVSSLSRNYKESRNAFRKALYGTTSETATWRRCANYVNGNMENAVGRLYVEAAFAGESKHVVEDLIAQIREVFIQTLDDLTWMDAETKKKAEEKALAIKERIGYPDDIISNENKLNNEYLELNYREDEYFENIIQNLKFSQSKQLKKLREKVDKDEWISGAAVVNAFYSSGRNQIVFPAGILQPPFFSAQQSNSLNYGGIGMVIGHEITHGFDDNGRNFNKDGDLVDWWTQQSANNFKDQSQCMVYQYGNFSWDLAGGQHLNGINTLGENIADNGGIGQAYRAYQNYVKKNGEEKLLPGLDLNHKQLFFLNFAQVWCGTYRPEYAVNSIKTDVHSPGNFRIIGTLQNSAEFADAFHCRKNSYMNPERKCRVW

Rattus norvegicus [6] = assay: Increase in mean arterial pressure (MAP) in anesthetized male wistar rats on iv injection of 1 nmol/kg big ET-1; type: functional, Artery

SMILES	Ki [1] [nM]	Ki (Neprilysin) [nM]	Ki [2] [nM]	MAP (Rattus norvegicus [3]) [mmHg]	MAP (Rattus norvegicus [4]) [mmHg]	inhibition [5] [%]	MAP (Rattus norvegicus [6]) [mmHg]
O=C(O)[C@H](Cc1c[nH]c2ccccc12)NC(=O)[C@H](CS)[C@@H]1CCc2cc(Br)ccc21	66	13	90	–	–	–	–
O=C(O)[C@H](Cc1c[nH]c2ccccc12)NC(=O)[C@@H](CS)[C@@H]1CCc2cc(Br)ccc21	58	9.4	110	–	–	–	–
COc1ccc2c(c1)CC[C@@H]2[C@@H](CS)C(=O)N[C@@H](Cc1c[nH]c2ccccc12)C(=O)O	24	1.3	10	–	–	–	–
COc1ccc2c(c1)CC[C@H]2[C@H](CS)C(=O)N[C@@H](Cc1c[nH]c2ccccc12)C(=O)O	70	30	1460	–	–	–	–
O=C(O)[C@H](Cc1c[nH]c2ccccc12)NC(=O)[C@H](CS)[C@H]1CCc2cc(Br)ccc21	55	1.8	18	–	–	–	–
O=C(O)C(Cc1c[nH]c2ccccc12)NC(=O)C(CS)C1CCc2cc(O)ccc21 (stereo unspecified)	7	4	90	–	–	–	–
CSc1ccc2c(c1)CCC2C(CS)C(=O)NC(Cc1c[nH]c2ccccc12)C(=O)O (stereo unspecified)	14	6	35	–	–	–	–
COc1ccc2c(c1)CC[C@H]2[C@@H](CS)C(=O)N[C@@H](Cc1c[nH]c2ccccc12)C(=O)O	30	15	180	–	–	–	–
CN(C)c1ccc2c(c1)CCC2C(CS)C(=O)NC(Cc1c[nH]c2ccccc12)C(=O)O (stereo unspecified)	44	15	370	–	–	–	–
COc1cccc2c1CCC2C(CS)C(=O)NC(Cc1c[nH]c2ccccc12)C(=O)O (stereo unspecified)	8	16	760	–	–	–	–
O=C(O)C(Cc1c[nH]c2ccccc12)NC(=O)C(CS)C1CCc2cc(Br)ccc21 (stereo unspecified)	12	5	31	–	–	–	–
COc1cc2c(cc1OC)C(C(CS)C(=O)NC(Cc1c[nH]c3ccccc13)C(=O)O)CC2 (stereo unspecified)	78	78	560	–	–	–	–
COc1ccc2c(c1)C(C(CS)C(=O)NC(Cc1c[nH]c3ccccc13)C(=O)O)CC2 (stereo unspecified)	35	11	79	–	–	–	–
O=C(O)[C@H](Cc1c[nH]c2ccccc12)NC(=O)[C@@H](CS)[C@H]1CCc2cc(Br)ccc21	4.1	3.8	28	-15.2	15	70	57.2
COc1ccc2c(c1)CCC2C(CS)C(=O)NC(Cc1c[nH]c2ccccc12)C(=O)O (stereo unspecified)	11	5	22	–	–	–	–
O=C(O)C(Cc1c[nH]c2ccccc12)NC(=O)C(CS)C1CCc2cc(-c3ccccc3)ccc21 (stereo unspecified)	27	14	140	–	–	–	–
CCOc1ccc2c(c1)CCC2C(CS)C(=O)NC(Cc1c[nH]c2ccccc12)C(=O)O (stereo unspecified)	18	8	47	–	–	–	–
COc1ccc2c(c1)CC[C@@H]2[C@H](CS)C(=O)N[C@@H](Cc1c[nH]c2ccccc12)C(=O)O	4.6	2.7	100	–	–	–	–
N#Cc1ccc2c(c1)CCC2C(CS)C(=O)NC(Cc1c[nH]c2ccccc12)C(=O)O (stereo unspecified)	3	11	210	–	–	–	–

Reference: ChEMBL document CHEMBL1135193, “N-[2-(Indan-1-yl)-3-mercapto-propionyl] amino acids as highly potent inhibitors of the three vasopeptidases (NEP, ACE, ECE): In vitro and In vivo activities” (Bioorg Med Chem Lett, 2002)
